From the supplement of paper PMC5412046
Counter-ions that a name gives are not always drawn.

Tests used:
[1] = test system: SB.mhdgc-1; assay: AC50 for growth inhibition (viability) (log10 M); higher = less potent; details: SB.mhdgc-1 (hereditary c.1380delA CDH1 gastric cancer)
Summary of the method: (§1)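 After 48 h with compound, plates received CellTiter-Glo for 30 min at room temperature and were read for luminescence on a ViewLux. The cells were patient-derived gastric cancer lines of hereditary or sporadic origin, plated at 500 cells in 5 μL medium per 1536 well and pinned with 23 nL compound in DMSO, at 11 threefold dilutions from a final 46 μM. For the log half-maximal activity concentration, DMSO-normalised viability was fitted with four parameters and only high-quality curve classes were kept.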

[2] = test system: SB.msgc-1; assay: as above; details: SB.msgc-1 (sporadic gastric cancer)
Summary of the method: as §1

Compound | AC50 for growth inhibition (log10 M) [1] | AC50 for growth inhibition (log10 M) [2]
CN(c1ncccc1CNc1nc(Nc2ccc3c(c2)CC(=O)N3)ncc1C(F)(F)F)[S+](C)(=O)[O-] | -5.18 | -5.13
COc1ncc(-c2ccc3nccc(-c4ccnnc4)c3c2)cc1N[S+](=O)([O-])c1ccc(F)cc1F | -7.38 | -5.93
Cc1c(N)nc([C@H](CC(N)=O)NC[C@@H](N)C(N)=O)nc1C(=O)N[C@H](C(=O)N[C@@H](C)[C@H](O)[C@@H](C)C(=O)N[C@@H](C(=O)NCCc1nc(-c2nc(C(=O)NCCC[S+](C)C)cs2)cs1)[C@@H](C)O)C(O[C@H]1O[C@H](CO)[C@H](O)[C@@H](O)[C@H]1O[C@H]1O[C@H](CO)[C@@H](O)[C@H](OC(N)=O)[C@@H]1O)c1c[nH]cn1 (stereo partly drawn) [Bleomycin sulfate] | -5.88 | -5.43
CN(C)c1ccc2cc(C(=O)N[C@@H](CCCNC(=N)CCl)C(=O)NCc3ccccc3)ccc2c1 [YW3-56] | -4.78 | -5.03
COC1=C(CC=C(C)C)C2=C(\C=C/C(=O)O2)C=C1 [Osthol] | -5.78 | -5.53
CC(C)c1cnn2c(NCc3ccccc3)cc(NCCCCCCN)nc12 [BS-181] | -4.83 | -4.73
C=CC(=O)Nc1cccc(Oc2nc(Nc3ccc(N4CCN(C)CC4)cc3OC)ncc2Cl)c1 [WZ-4002] | -4.83 | -7.78
CC(C)C[C@H](NC(=O)CNC(=O)c1cc(Cl)ccc1Cl)B(O)O [Ixazomib] | -6.63 | -7.03
C[S+](=O)([O-])N1CCc2c(-c3cnc(N)nc3)nc(N3CCOCC3)nc21 | -5.68 | -6.43
CC[C@@]1([C@@H]2O[C@@H]([C@H]3O[C@@](O)(CO)[C@H](C)C[C@@H]3C)C[C@@H]2C)CC[C@H]([C@]2(C)CC[C@]3(C[C@H](O)[C@@H](C)[C@@H]([C@@H](C)[C@@H](OC)[C@H](C)C(=O)[O-])O3)O2)O1 [Monensin sodium salt] | -6.99 | -6.94
Nc1cc(C(F)(F)F)c(-c2cc(N3CCOCC3)nc(N3CCOCC3)n2)cn1 [BKM-120] | -6.78 | -6.18
O=C1CSC(=O)N1C(CCc1ccncc1)COc1ccc(-c2cccc([N+](=O)[O-])c2)cc1 (stereo not drawn) | -5.88 | -5.78
CC1(C)CCC(=C(\C1)C2=CC=C(Cl)C=C2)/CN3CCN(CC3)C4=CC(=C(C=C4)C(=O)N[S+]([O-])(=O)C5=CC=C(NCC6CCOCC6)C(=C5)[N+]([O-])=O)OC7=CN=C8[NH]C=CC8=C7 [ABT-199] | -4.73 | -4.88
c1ccc(-c2oc3ncnc(NC[C@@H]4CCCO4)c3c2-c2ccccc2)cc1 [AIM-100] | -5.08 | -5.73
COc1cc2c(cc1OC)CN(CCc1ccc(NC(=O)c3cc(OC)c(OC)cc3NC(=O)c3cnc4ccccc4c3)cc1)CC2 [Tariquidar] | -5.03 | -5.08
CC1=CC=C(C=C1)\C2=N\C3=CC=C(Cl)C=C3OC2 [AR7] | -5.03 | -5.03
O=C(NC1CCNCC1)c1n[nH]cc1NC(=O)c1c(Cl)cccc1Cl [AT-7519] | -7.18 | -6.68
CN1CCN(CCCN2c3ccccc3Sc3ccc(C(F)(F)F)cc32)CC1 [Stelazine  trifluoperzine] | -5.63 | -5.08
Nc1nccc(-c2ccc3noc(-c4ccc(Cl)cc4)c3c2)n1 [Pim 1 inhibitor 2] | -5.48 | -5.03
Cc1cccc2c1CC[C@H](CN1CCC(c3c(Cl)cccc3Cl)CC1)C[C@@H]2O | -4.73 | -4.78
CC/1=C/C(=O)N(O)/C(=C1)C2CCCCC2 [ciclopirox] | -4.73 | -5.43
Cc1ccc(NC(=O)c2cccc(N(C)C)c2)cc1NC(=O)c1ccc(O)cc1 | -6.48 | -5.78
CN1C(=O)C(=C/2N(C(=O)N(C3CC3)C(=O)C2=C1/NC4=CC=C(I)C=C4F)C5=CC=CC(=C5)NC(C)=O)\C [Trametinib] | -5.03 | -6.63
C[C@](O)(CS(=O)(=O)c1ccc(F)cc1)C(=O)Nc1ccc(C#N)c(C(F)(F)F)c1 [(R)-Bicalutamide] | -6.33 | -6.03
CC[C@@H]1/C=C(\C)C[C@H](C)C[C@H](OC)[C@H]2O[C@@](O)(C(=O)C(=O)N3CCCC[C@H]3C(=O)O[C@H](/C(C)=C/[C@@H]3CC[C@H](Cl)[C@H](OC)C3)[C@H](C)[C@@H](O)CC1=O)[C@H](C)C[C@@H]2OC [Pimecrolimus] | -4.98 | -4.93

Compound | AC50 for growth inhibition (log10 M) [1] | AC50 for growth inhibition (log10 M) [2]
CC1(C)CCC[C@]2(C)[C@H]3CC(=O)O[C@]3(C)CC[C@@H]12 [Sclareolide] | -5.03 | -4.78
C[C@]12CC[C@H]3[C@@H](C\C=C/4C[C@@H](O)CC[C@]34C)[C@@H]1CCC2=O [Dehydroepiandrosterone] | -5.78 | -4.78
CCN(CC)CCCCNc1nc2cc(Cl)c(Cl)cc2nc1-c1ccc(-c2cccs2)s1 | -5.03 | -4.68
CCCCC[C@H](O)/C=C/[C@H]1[C@H](O)CC(=O)[C@@H]1CCCCCCC(=O)O [Alprostadil] | -5.13 | -4.68
Cc1cc(Nc2cc(NC(=O)c3c(Cl)cccc3Cl)ccn2)nc(N)n1 [RO495] | -5.58 | -6.38
CC(C)C[C@@H](C=O)NC(=O)[C@H](CC(C)C)NC(=O)[C@H](CC(C)C)NC(=O)OCc1ccccc1 [MG-132] | -6.33 | -6.08
CN[S+](=O)([O-])CCc1ccc2[nH]cc(C3CCN(C)CC3)c2c1 [Naratriptan hydrochloride] | -7.08 | -6.83
CCCCCC[C@H]1C(=O)O[C@H](C)[C@H](NC(=O)c2cccc(NC=O)c2O)C(=O)O[C@@H](C)[C@@H]1OC(=O)CC(C)C [Antimycin A] | -7.08 | -7.13
C/C(O)=C(\C#N)C(=O)Nc1ccc(C(F)(F)F)cc1 [Teriflunomide] | -4.63 | -4.78
C[C@H]1[C@@H](C(=O)C[C@H]2O[C@@H]3O[C@]4(C)CC[C@H]5[C@H](C)CC[C@@H]([C@H]2C)[C@@]35OO4)O[C@@H]2O[C@]3(C)CC[C@H]4[C@H](C)CC[C@@H]1[C@@]24OO3 [BTM-2C-dimer ketone] | -6.38 | -6.38
NC1(C(=O)N[C@@H](CCO)c2ccc(Cl)cc2)CCN(c2ncnc3[nH]ccc23)CC1 [AZD-5363] | -5.23 | -5.08
COC(=O)C1C2CC3c4[nH]c5cc(OC)ccc5c4CCN3CC2CC(OC(=O)c2cc(OC)c(OC)c(OC)c2)C1OC (stereo not drawn) [Reserpine] | -5.43 | -5.43
O=C(Nc1c[nH]nc1-c1nc2cc(CN3CCOCC3)ccc2[nH]1)NC1CC1 [AT-9283] | -6.18 | -5.38
Clc1ccc(C2(c3ccc(-c4cn[nH]c4)cc3)CCNCC2)cc1 [AT-7867] | -4.88 | -4.73
CC/C(=C(\c1ccccc1)c1ccc(OCCN(C)C)cc1)c1ccccc1 [Tamoxifen] | -4.68 | -4.73
COc1cc(O)c2c(c1)C1OC1C[C@H](O)[C@H](O)C(=O)/C=C\C[C@H](C)OC2=O (stereo partly drawn) [Hypothemycin] | -5.03 | -4.83
Cc1ccc(C(=O)Nc2cccc(C(F)(F)F)c2)cc1-c1ccc2nc(NCCN3CCOCC3)ncc2c1 [AMG-47a] | -5.28 | -5.03
COCCCC/C(=N\OCCN)c1ccc(C(F)(F)F)cc1 [Fluvoxamine maleate] | -4.63 | -4.88
CCC(=C/[C@H](C)C/C=C/C(C)=C/[C@@H](C)C(=O)[C@@H](C)[C@H](O)[C@@H](C)C/C(C)=C/C(=O)O)/C=C/[C@@H]1OC(=O)C=C[C@@H]1C [Elactocin] | -7.66 | -7.06
Oc1c(Cl)cc(Cl)c2cccnc12 [Chloroxine] | -4.93 | -4.68
C#Cc1cccc(Nc2ncnc3cc(OCCOC)c(OCCOC)cc23)c1 [Erlotinib hydrochloride] | -6.38 | -5.63
COc1cc2nccc(Oc3ccc(NC(=O)Nc4cc(C)on4)c(Cl)c3)c2cc1OC [Tivozanib] | -5.28 | -5.58
COc1ccc([C@@H]2CNC(=O)C2)cc1OC1CCCC1 [S-(+)-Rolipram] | -5.58 | -5.58
CNCC(O)C(O)C(O)C(O)CO.O=C(O)c1ccc(-c2cc3cccnc3c(-c3ccc4nonc4c3)n2)cc1 [NVP-ABE171] | -4.58 | -4.63
